Laboratory results from US10323283B2, “Editing profiling of PDE8A pre-mRNA: use as specific biomarker of ADARs activities in human tissues to diagnose and to predict and assess therapeutic efficacy and/or efficiency or potential drug side effects” (ALCEDIAG, priority 2010, dated 2019).

What was measured:
Type in all cases: cell-based, human
[1] = test system: ADAR1a-p150; assay: Quantification of ADAR1a-p150 mRNA expression by real-time PCR in SH-SY5Y cells; details: IFNα application during 24 hours
Experimental: (§1) The SH-SY5Y Human neuroblastoma cell line was purchased from ECACC (ref 94030304, lot number 06H021). Cells were cultured in high glucose D-MEM medium (Sigma, ref D6546) supplemented with 10% dialysed FCS (PAA, ref A15-507, lot number A50708-0050), 2 mM Glutamine (Sigma, G7513) and a 1× mix of Antibiotic-Antimycotic Stabilized (Sigma, ref A5955) at 37° C. under a humidified atmosphere of 5% CO2. The day preceding hIFNα treatment, SH-SY5Y cells were plated in 8 different 6-well plates at a density of 7.10^5 cells/well. […]
In order to quantify levels of ADAR1a mRNA expression in SH-SY5Y cells first-strand cDNA was synthesized by reverse transcription (as described above) and subjected to TaqMan quantitative Real-Time PCR analysis (Applied Biosystems,). The probe and primers used for the quantitative PCRs were from Applied Biosystems (Gene Expression Assays, Assay-On-Demand): • -ADAR1a: ref Hs 01020780_ml
Human GAPDH (product no. 4326317E; Applied Biosystems) was included in each multiplex PCR as an internal control. […] Quantitation of target gene expression in all samples was normalized to GAPDH expression by the equation Ct (target)−Ct (GAPDH)=ΔCt, where Ct is the threshold cycle number. The mean ΔCt value of samples from untreated cells was determined and used as a reference point for the samples corresponding to IFNα treated cells. […]

[2] = test system: PDE8A pre-mRNA; assay: PDE8A pre-mRNA editing profile by nested RT-PCR and CE-SSCP in SH-SY5Y cells; details: increased concentrations of IFNα, 48 hours
Experimental: The SH-SY5Y Human neuroblastoma cell line was purchased from ECACC (ref 94030304, lot number 06H021). Cells were cultured in high glucose D-MEM medium (Sigma, ref D6546) supplemented with 10% dialysed FCS (PAA, ref A15-507, lot number A50708-0050), 2 mM Glutamine (Sigma, G7513) and a 1× mix of Antibiotic-Antimycotic Stabilized (Sigma, ref A5955) at 37° C. under a humidified atmosphere of 5% CO2. The day preceding hIFNα treatment, SH-SY5Y cells were plated in 8 different 6-well plates at a density of 7.10^5 cells/well. On the next day, culture medium was removed and cells were incubated for 48 hours with hIFNα at the correct concentration (PBL biomedical laboratories, ref 111001-1, lot number 3734). On the day of the experiment, the hIFNα stock solution (10^5 I.U/ml in sterile 1×D-PBS stocked at −80° C.) was thawed on ice and then extemporaneously diluted in D-MEM supplemented with FCS and Antibiotic-Antimycotic, at the final concentrations of […]. In each well, cells were treated with 2 ml of the working solution. Aliquots of the stock-solution were used only once. […]
Human total blood RNA was extracted with the PAXgene Blood RNA kit 50 (PreAnalytiX, ref 762174) according to manufacturer's instructions. […] Aliquots (5 μl) of the amplification products were used to check the quantity and the quality of amplicons on a 2% agarose analytic gel. […]

[3] = test system: PDE8A4 isoform of the protein; assay: Western blot analysis of PDE8A protein concentrations in SH-SY5Y cells after IFNα; details: IFNα application during 24 hours
Experimental: as §1
After culture medium elimination, SH-SY5Y cells were washed two times with a phosphate buffer solution (PBS, Gibco Invitrogen Corporation), scraped and solubilized for 2 hr at 4° C. in solubilization buffer containing 150 mM NaCl, 5 mM EDTA, 1% Triton X-100, 0.1% sodium deoxycholate, 10 mM Tris-HCl [pH 8.0] and supplemented with protease inhibitors (1 mM phenylmethylsulfonyl fluoride, and one tablet of Complete™ mini protease inhibitors cocktail [Roche]). […] Proteins present in the supernatant (clear lysate) were quantified with a Qubit Fluorometer (Invitrogen, Q32857) and the Quant-IT Protein assay (Invitrogen, ref Q33211). […]

Substance: interferon alpha [IFNα]
- RQ versus GAPDH of the ADAR1a-p150 [1]: induced
- proportions of isoform B in the editing profile of PDE8A RNA [2]: relative increase
- maximal effect on PDE8A4 isoform, % of the steady state concentration found in controls ([3]; from best fit): −47%
- estimated EC 50% of the effect on PDE8A4 isoform concentration versus concentrations of IFNα ([3]; western blot, ±SD, R^2 of the fit=0.7): 3.3±4.4 IU/ml
